Data on 12 compounds can be found in US20240174662A1, “SMALL MOLECULE INHIBITORS OF SALT INDUCIBLE KINASES” (Janssen Biotech, Inc., priority 2021, published 2024).

Bounds are passed on as bounds.

T1 sequence (Q9H0K1 whole entry, species assumed): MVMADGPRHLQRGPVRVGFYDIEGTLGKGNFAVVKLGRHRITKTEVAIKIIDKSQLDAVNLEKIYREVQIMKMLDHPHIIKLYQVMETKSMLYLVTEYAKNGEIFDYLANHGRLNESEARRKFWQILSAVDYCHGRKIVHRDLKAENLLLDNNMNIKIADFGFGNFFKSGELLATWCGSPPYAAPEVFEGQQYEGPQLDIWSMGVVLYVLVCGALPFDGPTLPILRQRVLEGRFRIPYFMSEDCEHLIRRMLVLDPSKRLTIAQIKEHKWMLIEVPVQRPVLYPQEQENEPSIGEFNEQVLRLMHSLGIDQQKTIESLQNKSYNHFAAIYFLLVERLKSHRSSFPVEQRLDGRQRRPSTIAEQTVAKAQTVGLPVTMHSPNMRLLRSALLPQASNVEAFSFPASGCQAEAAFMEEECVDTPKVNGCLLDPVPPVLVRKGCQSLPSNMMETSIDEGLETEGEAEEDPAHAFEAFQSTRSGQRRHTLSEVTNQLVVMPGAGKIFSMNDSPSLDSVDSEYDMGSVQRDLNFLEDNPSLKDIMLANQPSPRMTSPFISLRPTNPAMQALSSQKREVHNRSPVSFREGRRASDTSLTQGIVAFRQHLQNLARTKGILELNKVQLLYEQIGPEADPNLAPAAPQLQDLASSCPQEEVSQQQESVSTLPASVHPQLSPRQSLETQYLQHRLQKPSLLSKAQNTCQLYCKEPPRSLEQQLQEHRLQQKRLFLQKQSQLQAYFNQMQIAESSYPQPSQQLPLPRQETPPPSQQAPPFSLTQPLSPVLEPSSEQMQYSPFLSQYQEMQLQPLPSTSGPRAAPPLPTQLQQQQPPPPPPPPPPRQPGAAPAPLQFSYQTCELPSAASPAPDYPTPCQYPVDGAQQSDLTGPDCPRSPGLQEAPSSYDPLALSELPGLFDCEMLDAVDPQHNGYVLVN

One experiment has as its target T1, SIK2 (Homo sapiens (Human), UniProt Q9H0K1). The experiment can be described thus: SIK2 Enzymatic Assay Version 2 (High ATP). It counts as biochemical. The conditions noted are these: 3 mM ATP and 200 μM HDAC5tide final, ADP-Glo Max luminescence. In a few lines:
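Luminescent ADP-Glo Max read-out: depletion reagent 2 h, then detection reagent 1 h. Before the reaction, compounds were incubated 30 min with enzyme added at 6 nM (twice final concentration), with all steps at room temperature.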
One may read the IC50 as the concentration that gives 50% inhibition. With `CN1CC[C@@H](Oc2cnn(C)c2-c2ccn3nc(NC(=O)C4CC4)cc3c2)C1` [Example 488, N-[5-[2-methyl-4-[(3R)-1-methylpyrrolidin-3-yl]oxy-pyrazol-3-yl]pyrazolo[1,5-a]pyridin-2-yl]cyclopropanecarboxamide], the half-maximal inhibitory concentration (IC50) worked out at 424 nM.
Still for that read-out and setting: the value for `CN1CCO[C@H](COc2cnn(C)c2-c2ccn3nc(NC(=O)C4CC4)cc3c2)C1` [Example 487] was 334 nM.
Compound `CN1C[C@@H](F)[C@H](OCc2cnn(C)c2-c2ccn3nc(NC(=O)C4CC4)cc3c2)C1` [Example 467, N-[5-[4-[[(3R,4R)-4-fluoro-1-methyl-pyrrolidin-3-yl]oxymethyl]-2-methyl-pyrazol-3-yl]pyrazolo[1,5-a]pyridin-2-yl]cyclopropanecarboxamide] yielded an IC50 of 113 nM.
Regarding `CCN1CC[C@@H]1COc1cnn(C)c1-c1ccn2nc(Nc3ccnc(OC)n3)cc2c1` [Example 163, 5-[4-[[(2R)-1-ethylazetidin-2-yl]methoxy]-2-methyl-pyrazol-3-yl]-N-(2-methoxypyrimidin-4-yl)pyrazolo[1,5-a]pyridin-2-amine], half-maximal inhibition (IC50) required 2.2 nM.
Consider `[2H]C([2H])([2H])N1CC[C@@H]1COc1cnn(C([2H])([2H])[2H])c1-c1ccn2nc(Nc3cc(C)nc(C)n3)cc2c1` [Example 355, N-(2,6-dimethylpyrimidin-4-yl)-5-[2-(trideuteriomethyl)-4-[[(2R)-1-(trideuteriomethyl)azetidin-2-yl]methoxy]pyrazol-3-yl]pyrazolo[1,5-a]pyridin-2-amine], for which the IC50 is < 0.847 nM.
Take `C[C@H]1[C@H](COc2cnn(C)c2-c2ccn3nc(NC(=O)C4CC4)cc3c2)CN1C` (single isomer, unassigned) [Example 337, (2*S, 3*R)—N-[5-[4-[(1,2-dimethylazetidin-3-yl)methoxy]-2-methyl-pyrazol-3-yl]pyrazolo[1,5-a]pyridin-2-yl]cyclopropanecarboxamide]: the 50% inhibitory concentration (IC50) was determined as 54.4 nM.
Same read-out and setting: the value for `Cn1ncc(OC[C@H]2CCN2CC#N)c1-c1ccn2nc(NC(=O)C3CC3)cc2c1` [Example 425, N-[5-[4-[[(2R)-1-(cyanomethyl)azetidin-2-yl]methoxy]-2-methyl-pyrazol-3-yl]pyrazolo[1,5-a]pyridin-2-yl]cyclopropanecarboxamide] was 155 nM.
The same measure, in the same setting: the value for `CN1CC(OCc2cnn(C)c2-c2ccn3nc(NC(=O)C4CC4)cc3c2)C1` [Example 361, N-[5-[2-methyl-4-[(1-methylazetidin-3-yl)oxymethyl]pyrazol-3-yl]pyrazolo[1,5-a]pyridin-2-yl]cyclopropanecarboxamide] was 53.9 nM; that for `Cn1ncc(COC2(C)CNC2)c1-c1ccn2nc(NC(=O)C3CC3)cc2c1` [Example 191, N-[5-[2-methyl-4-[(3-methylazetidin-3-yl)oxymethyl]pyrazol-3-yl]pyrazolo[1,5-a]pyridin-2-yl]cyclopropanecarboxamide] was 11.3 nM; that for `CCCn1ncc(OC[C@@H]2CCN(C)C2)c1-c1ccn2nc(NC(=O)C3CC3)cc2c1` [Example 490, N-[5-[4-[[(3R)-1-methylpyrrolidin-3-yl]methoxy]-2-propyl-pyrazol-3-yl]pyrazolo[1,5-a]pyridin-2-yl]cyclopropanecarboxamide] was 7330 nM.
On the same count and under the same terms, the value for `Cn1ncc(OCC2(N)CCC2)c1-c1ccn2nc(NC(=O)C3CC3)cc2c1` [Example 231, N-[5-[4-[(1-aminocyclobutyl)methoxy]-2-methyl-pyrazol-3-yl]pyrazolo[1,5-a]pyridin-2-yl]cyclopropanecarboxamide] was 46.9 nM.

The next experiment deals with T1, SIK2. The experiment can be described thus: SIK2 Enzymatic Assay Version 1 (ADP Glo). In kind it is biochemical. The conditions noted are these: 80 μM ATP and 70 μM HDAC5tide final, ADPGlo luminescence. The method, then: All steps were performed at room temperature. Compounds were pre-plated onto an assay plate using an Echo acoustic dispenser (Labcyte, E550 or E555) at 20 nL per well. Enzyme prepared in Assay Buffer at 0.6 nM (2× final concentration) was added at 2 μL per well using the Multidrop Combi (Thermo Fisher-used for all additions in this assay) to the assay plate, spun for 1 min at 800-850 rpm (Allegra 6KR Beckman Coulter centrifuge), and incubated with compound for 30 minutes. Assay Buffer containing 160 μM ATP and 140 μM HDAC5tide (2× of final concentration for each substrate) was added at 2 μL per well to the assay plate and then spun as above and incubated for 4 hours.
One column of wells was dedicated to a no-peptide negative control (containing only ATP). ADPGlo Reagent (prepared and aliquoted as per manufacturer instructions) was then added at 2 μL per well, spun and incubated for 40 min. ADPGlo Detection (prepared and aliquoted as per manufacturer instructions) was added at 2 μL per well to the assay plate, which was spun and incubated for at least 30 min. The plate was then read on the Pherastar (BMG Labtech) using a luminescence read. Gain was set by the 0.1 mM concentration of ADP wells in the ADP/ATP standard curve plate generated as per manufacturer instructions.
(ADP-Glo turns the ADP formed in a reaction into a luminescent signal.)
In turn, `CN1CC[C@@H](Oc2cnn(C)c2-c2ccn3nc(NC(=O)C4CC4)cc3c2)C1` [Example 488, N-[5-[2-methyl-4-[(3R)-1-methylpyrrolidin-3-yl]oxy-pyrazol-3-yl]pyrazolo[1,5-a]pyridin-2-yl]cyclopropanecarboxamide] gave a half-maximal inhibitory concentration (IC50) of 6.45 nM.
Same read-out and setting: the value for `CN1CCO[C@H](COc2cnn(C)c2-c2ccn3nc(NC(=O)C4CC4)cc3c2)C1` [Example 487] was 12.9 nM; that for `Cc1oncc1-c1ccn2nc(NC(=O)C3CC3)cc2c1` [Example 486, N-[5-(5-methylisoxazol-4-yl)pyrazolo[1,5-a]pyridin-2-yl]cyclopropanecarboxamide] was 39.7 nM.
